Entries after “also recorded” stand apart in the source; their conditions may differ. Counter-ions that a name gives are not always drawn.
Tests used:
human hair follicles [1] = experiment: Evolution of radiolabelled CO2 from radiolabelled substrate by cultured hair follicles; format: cell-based; details: five follicles per tube, 37° C.
Protocol: Hair follicles were isolated from human scalp skin obtained from four different female subjects; hair follicles were isolated from human scalp skin and placed into a 6 well culture plate at a density of 15 follicles/well in 5 mL complete Williams E medium containing penicillin (50 μg/mL), streptomycin (50 IU/mL), L-glutamine (2 mM), hydrocortisone (10 ng/mL) and insulin (10 μg/mL). In addition a cocktail of amino acids consisting of arginine (0.45 mM) proline (1 mM), glycine (2.6 mM) and alanine (1 mM) was also added since these are though to improve the maintenance of hair follicles in vitro. After an overnight incubation (37° C., 5% CO2 in air) to ensure continued growth following the isolation procedure, follicles were cut to a uniform length and incubated until required.
For each experimental time point, five follicles were transferred to each of 3 eppendorf tubes in triplicate with 10 μL medium. […] After the seals had been removed the medium was sampled for counting the remaining radioactivity (3×10 μL). The KOH solution was analysed by liquid scintillation counting (Beckman LS 60001C) after addition of 18 mL Hionic Fluor (Packard).
Results from the mean of each triplicate control were subtracted from the corresponding mean from the experimental results. These combined results were then analysed by regression. […]

human hair follicles [2] = experiment: tissue or blood; format: cell-based; details: read-out: inhibition of oxygen consumption by the follicles
Protocol: Follicles were isolated from human facelift skin and grown in culture according to the methods described (Philpott et al J.Cell.Sci.97: pp 463-470 1990). For the oxygen consumption experiments a Clarke electrode apparatus (Tank Brothers Limited, Cambridge, England) was used.
The equipment was set up in accordance with the manufacturers instructions, the temperature of the cell being maintained at 37° C. using a circulating water bath. The output of the electrode was recorded using Perkin Elmer Turbochrom 4 data logging software.
The apparatus contains a Teflon membrane in the cell which was changed daily and the cell calibrated and prepared for use as follows. […] After recording this new ‘zero oxygen’ baseline the medium was reoxygenated by bubbling air through and the new baseline recorded. […]
After calibration, a fresh 2 ml sample of William's E medium gassed with 5% carbon dioxide in air was added, the plunger inserted into the cell ensuring that no air bubble was trapped, and the output from the cell recorded to give a rate for oxygen consumption of the cell. […] The new rate of oxygen consumption was recorded for a sufficient time as to enable its accurate determination. […]
From the calibration of the electrode, a curve was derived from which a baseline reading corresponding to zero oxygen level could be derived. […]

SMILES: O=C(O)CC(O)(CC(=O)O)C(=O)O [citrate, [1,5-^14C]-sodium citrate]
- average production of CO2 evolved from metabolism of citrate (human hair follicles [1]; [1,5-14C]-sodium citrate, about 3 μCi in 100 μL medium, up to 12 h): 0.23 (±0.04) μmol CO2
- uptake and metabolism by hair follicles (radiolabelled CO2 evolution), result in words (human hair follicles [1]; radiolabelled substrate in medium): linear increase in the amount of CO2 evolved; also recorded: taken up into hair follicles and used as an energy source

SMILES: [N-]=[N+]=[N-] [sodium azide]
- inhibition at 2000 µM (human hair follicles [2]): 54 to 87%

SMILES: C[C@]12CC[C@H]3[C@@H](CC[C@]4(O)C[C@@H](O)CC[C@]34C=O)[C@@]1(O)CC[C@@H]2C1=CC(=O)OC1 [strophanthidin, Strophanthidin]
- inhibition at 100 µM (human hair follicles [2]; 0.1 mM strophanthidin, 160 follicles in 2 ml medium, 37° C.): 76%
